For this experiment, the target named is T1, human Werner helicase (WRN-BV08, Uniprot Q14191, amino acids 517-1235 with L1074F point mutation) (Homo sapiens, UniProt Q14191, L1074F).
T1 construct: Uniprot Q14191, amino acids 517-1235 with L1074F point mutation; TEV-cleavable 8×His (C, cleaved yes); made in house; host or cells: Sf9 insect cells (baculovirus)
T1 sequence (Q14191 with tags, fused parts or gaps L1074F limits assumed): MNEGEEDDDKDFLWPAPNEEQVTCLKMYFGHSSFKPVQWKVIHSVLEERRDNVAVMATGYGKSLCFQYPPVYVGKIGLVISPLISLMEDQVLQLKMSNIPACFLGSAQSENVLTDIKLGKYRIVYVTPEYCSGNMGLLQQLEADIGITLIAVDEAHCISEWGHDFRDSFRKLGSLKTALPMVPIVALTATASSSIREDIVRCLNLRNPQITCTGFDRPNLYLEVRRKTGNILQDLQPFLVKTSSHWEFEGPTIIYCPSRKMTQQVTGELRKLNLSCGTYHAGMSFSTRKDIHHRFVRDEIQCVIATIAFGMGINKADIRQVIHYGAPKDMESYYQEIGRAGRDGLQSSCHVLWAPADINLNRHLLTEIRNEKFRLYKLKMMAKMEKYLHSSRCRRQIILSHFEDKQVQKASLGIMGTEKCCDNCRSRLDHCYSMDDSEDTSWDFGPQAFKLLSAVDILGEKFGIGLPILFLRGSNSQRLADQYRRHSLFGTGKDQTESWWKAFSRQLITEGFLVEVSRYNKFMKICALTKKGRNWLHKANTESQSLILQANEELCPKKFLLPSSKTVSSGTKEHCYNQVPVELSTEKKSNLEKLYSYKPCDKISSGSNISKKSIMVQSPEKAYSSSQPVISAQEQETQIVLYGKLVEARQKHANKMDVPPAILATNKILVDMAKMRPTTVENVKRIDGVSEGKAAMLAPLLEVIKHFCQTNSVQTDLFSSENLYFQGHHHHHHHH
In words: WRN (BV08) ADP-Glo Assay. The class given is biochemical. As to conditions: 0.15 nM WRN, 5 μM ATP, 0.1 nM DNA duplex, 15 min preincubation, 60 min at 25° C., pH 7.5, 1% DMSO; read-out: ADP-Glo_hWRN_IC50. The essentials:
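ADP-Glo luminescence read-out of ATP hydrolysis. Conditions: 0.15 nM WRN, 5 μM ATP, 0.1 nM DNA duplex, 1% DMSO, 60 min at 25 °C after 15 min compound preincubation. Max/min controls were DMSO and 20 μM NSC-617145; IC50 from four-parameter fit.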
With `COc1cc(CN(C(=O)Cc2ccc([C@@H]3C[C@H]3C(F)(F)F)cc2)[C@@H]2C=CS(=O)(=O)C2)ccn1` (mixture of isomers) [I-784, N-[(3R)-1,1-dioxo-2,3-dihydro-1lambda6-thiophen-3-yl]-N-[(2-methoxypyridin-4-yl)methyl]-2-{4-[(1RS,2RS)-2-(trifluoromethyl)cyclopropyl]phenyl}acetamide], the IC50 lay within 5 to 10 µM.
Then `O=C(Cc1ccc(OC2CCC2)cc1)N(Cc1ccncc1)C1C=CS(=O)(=O)C1` (centres unmarked) [I-463, 2-(4-cyclobutoxyphenyl)-N-(1,1-dioxo-2,3-dihydro-1lambda6-thiophen-3-yl)-N-[(pyridin-4-yl)methyl]acetamide], with greater than 50 µM; and `COc1cc(CN(C(=O)C(C(=O)N(C)C)c2ccc(-c3ccc(F)cc3)cc2F)C2C=CS(=O)(=O)C2)ccn1` (single isomer, unassigned) [I-267, (2R**)-2-{3,4′-difluoro-[1,1′-biphenyl]-4-yl}-N-[(3R*)-1,1-dioxo-2,3-dihydro-1lambda6-thiophen-3-yl]-N-[(2-methoxypyridin-4-yl)methyl]-N′,N′-dimethylpropanediamide], with 10 to 50 µM.
Then `O=C(CCc1cc2ccccc2s1)N(Cc1ccncc1)C1C=CS(=O)(=O)C1` (centres unmarked) [I-495, 3-(1-benzothiophen-2-yl)-N-(1,1-dioxo-2,3-dihydro-1lambda6-thiophen-3-yl)-N-[(pyridin-4-yl)methyl]propanamide], with greater than 50 µM; and `O=C(Cc1cnn(-c2ccccc2)n1)N(Cc1ccncc1)C1C=CS(=O)(=O)C1` (centres unmarked) [I-406, N-(1,1-dioxo-2,3-dihydro-1lambda6-thiophen-3-yl)-2-(2-phenyl-2H-1,2,3-triazol-4-yl)-N-[(pyridin-4-yl)methyl]acetamide], with greater than 50 µM.
With `COc1cc([C@H](C)N(C(=O)Cn2cc(-c3cc(F)c(F)c(F)c3)cn2)[C@@H]2C=CS(=O)(=O)C2)ccn1` [I-829, N-[(3R)-1,1-dioxo-2,3-dihydro-1lambda6-thiophen-3-yl]-N-[(1S)-1-(2-methoxypyridin-4-yl)ethyl]-2-[4-(3,4,5-trifluorophenyl)-1H-pyrazol-1-yl]acetamide] the figure was less than 0.5 µM.
For the compound `CNC(=O)c1ccc(CN(C(=O)Cc2ccc(-n3cccc3)cc2)C2C=CS(=O)(=O)C2)cc1` (centres unmarked) [I-255, 4-{[N-(1,1-dioxo-2,3-dihydro-1lambda6-thiophen-3-yl)-2-[4-(1H-pyrrol-1-yl)phenyl]acetamido]methyl}-N-methylbenzamide], the IC50 fell in the range of 5 to 10 µM.
With `COc1cc(CN(C(=O)C(c2ccc(-c3ccc(F)c(F)c3)cc2F)n2ccc(C)n2)[C@@H]2C=CS(=O)(=O)C2)ccn1` (single isomer, unassigned) [I-737, (2R*)-N-[(3R)-1,1-dioxo-2,3-dihydro-1lambda6-thiophen-3-yl]-N-[(2-methoxypyridin-4-yl)methyl]-2-(3-methyl-1H-pyrazol-1-yl)-2-{3,3′,4′-trifluoro-[1,1′-biphenyl]-4-yl}acetamide] the figure was less than 0.5 µM; with `COc1cc(CN(C(=O)C(c2ccc(-c3ccc(F)c(F)c3)cc2F)n2cc(OC(F)F)cn2)[C@@H]2C=CS(=O)(=O)C2)ccn1` (single isomer, unassigned) [I-696, (2R*)-2-[4-(difluoromethoxy)-1H-pyrazol-1-yl]-N-[(3R)-1,1-dioxo-2,3-dihydro-1lambda6-thiophen-3-yl]-N-[(2-methoxypyridin-4-yl)methyl]-2-{3,3′,4′-trifluoro-[1,1′-biphenyl]-4-yl}acetamide], greater than 50 µM.
Then `O=C(Cc1ccc(-n2cccc2)cc1)N(Cc1nc2c(s1)CCC2)C1C=CS(=O)(=O)C1` (centres unmarked) [I-155, N-({4H,5H,6H-cyclopenta[d][1,3]thiazol-2-yl}methyl)-N-(1,1-dioxo-2,3-dihydro-1lambda6-thiophen-3-yl)-2-[4-(1H-pyrrol-1-yl)phenyl]acetamide], with 0.5 to 5 µM; and `Cc1cccn1-c1ccc(CC(=O)N(Cc2ccc(C(=O)N3CCN(C(=O)CCCc4cn(Cc5ccc(NC(=O)CCOCCOCCOCCOCCNC(=O)CCCC[C@@H]6SC[C@@H]7NC(=O)N[C@@H]76)cn5)nn4)CC3)cc2)C2C=CS(=O)(=O)C2)c(F)c1` (stereo partly drawn) [II-2, 1-{5-[(3aS,4S,6aR)-2-oxo-hexahydro-1H-thieno[3,4-d]imidazol-4-yl]pentanamido}-N-{6-[(4-{4-[4-(4-{[N-(1,1-dioxo-2,3-dihydro-1lambda6-thiophen-3-yl)-2-[2-fluoro-4-(2-methyl-1H-pyrrol-1-yl)phenyl]acetamido]methyl}benzoyl)piperazin-1-yl]-4-oxobutyl}-1H-1,2,3-triazol-1-yl)methyl]pyridin-3-yl}-3,6,9,12-tetraoxapentadecan-15-amide], with 0.5 to 5 µM.
With `O=C(Cc1ccc(-n2cccc2)cc1)N(Cc1nc(C(F)(F)F)cs1)C1C=CS(=O)(=O)C1` (centres unmarked) [I-145, N-(1,1-dioxo-2,3-dihydro-1lambda6-thiophen-3-yl)-2-[4-(1H-pyrrol-1-yl)phenyl]-N-{[4-(trifluoromethyl)-1,3-thiazol-2-yl]methyl}acetamide] the figure was 0.5 to 5 µM; with `COc1cc(CN(C(=O)Cn2cc(-c3ccc(F)c(F)c3)cn2)[C@@H]2C=CS(=O)(=O)C2)ccn1` [I-598, 2-[4-(3,4-difluorophenyl)-1H-pyrazol-1-yl]-N-[(3R)-1,1-dioxo-2,3-dihydro-1lambda6-thiophen-3-yl]-N-[(2-methoxypyridin-4-yl)methyl]acetamide], less than 0.5 µM.
For `Cc1csc(CN(C(=O)Cc2ccc(-n3cccc3)cc2)C2C=CS(=O)(=O)C2)n1` (centres unmarked) [I-189, N-(1,1-dioxo-2,3-dihydro-1lambda6-thiophen-3-yl)-N-[(4-methyl-1,3-thiazol-2-yl)methyl]-2-[4-(1H-pyrrol-1-yl)phenyl]acetamide], the IC50 lay within 0.5 to 5 µM.
Then `CC(C)(O)c1cc(CN(C(=O)Cn2ncc3cc(S(F)(F)(F)(F)F)ccc32)C2C=CS(=O)(=O)C2)ccn1` (single isomer, unassigned) [I-727], with 0.5 to 5 µM; and `CC(C)(O)c1cc(CN(C(=O)C(c2ccc(-c3ccc(F)c(F)c3)cc2F)n2cccn2)[C@@H]2C=CS(=O)(=O)C2)ccn1` (single isomer, unassigned) [I-682], with less than 0.5 µM.
For `O=C(Cc1ccc(-n2cccc2)cc1)N(Cc1ccnc2ccccc12)C1C=CS(=O)(=O)C1` (centres unmarked) [I-170, N-(1,1-dioxo-2,3-dihydro-1lambda6-thiophen-3-yl)-2-[4-(1H-pyrrol-1-yl)phenyl]-N-[(quinolin-4-yl)methyl]acetamide], the IC50 lay within 0.5 to 5 µM.
`COCCN(C)C(=O)C(C(=O)N(Cc1ccnc(C(C)(C)O)c1)[C@@H]1C=CS(=O)(=O)C1)c1ccc(-c2ccc(F)c(F)c2)cc1F` (stereo partly drawn) [I-20, N′-[(3R)-1,1-dioxo-2,3-dihydro-1lambda6-thiophen-3-yl]-N′-{[2-(2-hydroxypropan-2-yl)pyridin-4-yl]methyl}-N-(2-methoxyethyl)-N-methyl-2-{3,3′,4′-trifluoro-[1,1′-biphenyl]-4-yl}propanediamide]: the IC50 is less than 0.5 µM.
With `COc1cc(CN(C(=O)Cc2ccc(-c3cccc(F)c3)cc2F)C2C=CS(=O)(=O)C2)ccn1` (centres unmarked) [I-91, 2-{3,3′-difluoro-[1,1′-biphenyl]-4-yl}-N-(1,1-dioxo-2,3-dihydro-1lambda6-thiophen-3-yl)-N-[(2-methoxypyridin-4-yl)methyl]acetamide] the figure was 0.5 to 5 µM; with `O=C(Cc1ncc(-c2ccc(F)cc2)cc1F)N(Cc1ccncc1)C1C=CS(=O)(=O)C1` (centres unmarked) [I-205, N-(1,1-dioxo-2,3-dihydro-1lambda6-thiophen-3-yl)-2-[3-fluoro-5-(4-fluorophenyl)pyridin-2-yl]-N-[(pyridin-4-yl)methyl]acetamide], 0.5 to 5 µM.
With `O=C(Cc1ccc(C23CC(C2)C3)cc1)N(Cc1ccncc1)C1C=CS(=O)(=O)C1` (centres unmarked) [I-347, 2-(4-{bicyclo[1.1.1]pentan-1-yl}phenyl)-N-(1,1-dioxo-2,3-dihydro-1lambda6-thiophen-3-yl)-N-[(pyridin-4-yl)methyl]acetamide] the figure was 10 to 50 µM; with `CSC(C(=O)N(Cc1ccnc(C(C)(C)O)c1)C1C=CS(=O)(=O)C1)c1ccc(-c2ccc(F)c(F)c2)cc1F` (centres unmarked) [I-36, N-(1,1-dioxido-2,3-dihydrothiophen-3-yl)-N-((2-(2-hydroxypropan-2-yl)pyridin-4-yl)methyl)-2-(methylthio)-2-(3,3′,4′-trifluoro-[1,1′-biphenyl]-4-yl)acetamide], less than 0.5 µM.
Then `Cc1cccc(-c2ccc(CC(=O)N(Cc3ccncc3)C3C=CS(=O)(=O)C3)cc2)c1` (centres unmarked) [I-288, N-(1,1-dioxo-2,3-dihydro-1lambda6-thiophen-3-yl)-2-{3′-methyl-[1,1′-biphenyl]-4-yl}-N-[(pyridin-4-yl)methyl]acetamide], with 10 to 50 µM; and `O=C(Cn1cc(-c2cc(F)c(F)c(F)c2)cn1)N(Cc1cc(C2CC2)ns1)C1C=CS(=O)(=O)C1` (centres unmarked) [I-824, N-[(3-cyclopropyl-1,2-thiazol-5-yl)methyl]-N-(1,1-dioxo-2,3-dihydro-1lambda6-thiophen-3-yl)-2-[4-(3,4,5-trifluorophenyl)-1H-pyrazol-1-yl]acetamide], with less than 0.5 µM; and `COc1cnn(C(C(=O)N(Cc2ccnc(OC)c2)[C@@H]2C=CS(=O)(=O)C2)c2ccc(-c3ccc(F)c(F)c3)cc2F)c1` (stereo partly drawn) [I-748, N-[(3R)-1,1-dioxo-2,3-dihydro-1lambda6-thiophen-3-yl]-2-(4-methoxy-1H-pyrazol-1-yl)-N-[(2-methoxypyridin-4-yl)methyl]-2-{3,3′,4′-trifluoro-[1,1′-biphenyl]-4-yl}acetamide], with less than 0.5 µM.
On to `COc1cc(CN(C(=O)Cc2ccc(-c3ccc(F)c(F)c3)cc2F)C2C=CS(=O)(=O)C2)ccn1` (single isomer, unassigned) [I-35], for which the IC50 was less than 0.5 µM.

Source of the values: patent US20260297070A1, “CYCLIC [COMPOUND LEFT OUT] WRN INHIBITORS” (Nimbus Wadjet, Inc., priority 2023, published 2026).
